According to ChEMBL document CHEMBL1201862, “PubChem BioAssay data set” (2004):
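1) Cells in 96-well plates. 2) Compound, 48 h, 5 concentrations. 3) Linear interpolation between surrounding doses. 4) Unreached endpoint = highest concentration. At the GI50, growth is halved.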 Active and inactive are the calls of the source. Cut-off read from the data, not from the text of the source: active = GI50 up to about 1.1 µM and inactive = higher.

Columns and labels:
Test in all cases: inhibition of tumour cell growth, NCI panel, 48 h
786-0 = test system: 786-0
A498 = test system: A498
A549 = test system: A549
ACHN = test system: ACHN
CAKI-1 = test system: CAKI-1
CCRF-CEM = test system: CCRF-CEM
COLO 205 = test system: COLO 205
DLD-1 = test system: DLD-1
DMS-273 = test system: DMS-273
EKVX = test system: EKVX
HCC 2998 = test system: HCC 2998
HCT-116 = test system: HCT-116
HCT-15 = test system: HCT-15
HL-60 = test system: HL-60
HOP-18 = test system: HOP-18
HOP-62 = test system: HOP-62
HOP-92 = test system: HOP-92
HT-29 = test system: HT-29
IGROV-1 = test system: IGROV-1
K562 = test system: K562
KM-20L2 = test system: KM-20L2
KM12 = test system: KM12
LOX IMVI = test system: LOX IMVI
LXFL 529 = test system: LXFL 529
M14 = test system: M14
M19-MEL = test system: M19-MEL
MOLT-4 = test system: MOLT-4
Malme-3M = test system: Malme-3M
NCI-H226 = test system: NCI-H226
NCI-H23 = test system: NCI-H23
NCI-H460 = test system: NCI-H460
NCI-H522 = test system: NCI-H522
OVCAR-3 = test system: OVCAR-3
OVCAR-4 = test system: OVCAR-4
OVCAR-5 = test system: OVCAR-5
OVCAR-8 = test system: OVCAR-8
RPMI-8226 = test system: RPMI-8226
RXF 393 = test system: RXF 393
RXF 631 = test system: RXF 631
SF-268 = test system: SF-268
SF-295 = test system: SF-295
SF-539 = test system: SF-539
SK-MEL-28 = test system: SK-MEL-28
SK-MEL-2 = test system: SK-MEL-2
SK-MEL-5 = test system: SK-MEL-5
SN12C = test system: SN12C
SNB-19 = test system: SNB-19
SNB-75 = test system: SNB-75
SNB-78 = test system: SNB-78
SR = test system: SR
SW-620 = test system: SW-620
TK-10 = test system: TK-10
U-251 = test system: U-251
UACC-257 = test system: UACC-257
UACC-62 = test system: UACC-62
UO-31 = test system: UO-31
DMS-114 = test system: DMS-114
SK-OV-3 = test system: SK-OV-3
XF498 = test system: XF498

C=CCC1(CN(C)C)CC/C(=C\c2ccc3c(c2)OCO3)C1=O (stereo not given)
GI50 (786-0): 44.8 µM (inactive)
GI50 (A498): 33.7 µM (inactive)
GI50 (A549): 74.1 µM (inactive)
GI50 (ACHN): 31.6 µM (inactive)
GI50 (CAKI-1): 68.5 µM (inactive)
GI50 (CCRF-CEM): 29.2 µM (inactive)
GI50 (COLO 205): 23.7 µM (inactive)
GI50 (DLD-1): 27.7 µM (inactive)
GI50 (DMS-273): 47.6 µM (inactive)
GI50 (EKVX): 18.1 µM (inactive)
GI50 (HCC 2998): 37.3 µM (inactive)
GI50 (HCT-116): 43.6 µM (inactive)
GI50 (HCT-15): 39.4 µM
GI50 (HL-60): 4.32 µM (inactive)
GI50 (HOP-18): > 100 µM (inactive)
GI50 (HOP-62): > 100 µM (inactive)
GI50 (HOP-92): 89.9 µM (inactive)
GI50 (HT-29): 36 µM (inactive)
GI50 (IGROV-1): 60.5 µM (inactive)
GI50 (K562): 32.7 µM (inactive)
GI50 (KM-20L2): 28.9 µM (inactive)
GI50 (KM12): 42.3 µM (inactive)
GI50 (LOX IMVI): 97.1 µM (inactive)
GI50 (LXFL 529): 34.5 µM (inactive)
GI50 (M14): 56.9 µM (inactive)
GI50 (M19-MEL): 39.6 µM (inactive)
GI50 (MOLT-4): 27.3 µM (inactive)
GI50 (Malme-3M): > 100 µM (inactive)
GI50 (NCI-H226): > 100 µM (inactive)
GI50 (NCI-H23): 65.8 µM (inactive)
GI50 (NCI-H460): 50.4 µM (inactive)
GI50 (NCI-H522): 17.9 µM (inactive)
GI50 (OVCAR-3): 65.3 µM (inactive)
GI50 (OVCAR-4): 67.5 µM (inactive)
GI50 (OVCAR-5): > 100 µM (inactive)
GI50 (OVCAR-8): 48.4 µM (inactive)
GI50 (RPMI-8226): 24.3 µM (inactive)
GI50 (RXF 393): 59.8 µM (inactive)
GI50 (RXF 631): 25.4 µM (inactive)
GI50 (SF-268): 91 µM (inactive)
GI50 (SF-295): > 100 µM (inactive)
GI50 (SF-539): 88.9 µM (inactive)
GI50 (SK-MEL-28): > 100 µM (inactive)
GI50 (SK-MEL-2): > 100 µM (inactive)
GI50 (SK-MEL-5): 22.7 µM (inactive)
GI50 (SN12C): > 100 µM (inactive)
GI50 (SNB-19): > 100 µM (inactive)
GI50 (SNB-75): > 100 µM (inactive)
GI50 (SNB-78): > 100 µM (inactive)
GI50 (SR): 41 µM (inactive)
GI50 (SW-620): 35.1 µM (inactive)
GI50 (TK-10): > 100 µM (inactive)
GI50 (U-251): 52.1 µM (inactive)
GI50 (UACC-257): 40.7 µM (inactive)
GI50 (UACC-62): 68.4 µM (inactive)
GI50 (UO-31): 45 µM (inactive)

CC1(Cl)C(=O)NC(=O)N(C2CC(N=[N+]=[N-])C(CO)O2)C1N=[N+]=[N-] (stereo not given)
GI50 (786-0): > 100 µM (inactive)
GI50 (A498): > 100 µM (inactive)
GI50 (A549): > 100 µM (inactive)
GI50 (ACHN): > 100 µM (inactive)
GI50 (CAKI-1): > 100 µM (inactive)
GI50 (CCRF-CEM): > 100 µM (inactive)
GI50 (COLO 205): > 100 µM (inactive)
GI50 (DLD-1): > 100 µM (inactive)
GI50 (DMS-114): > 100 µM (inactive)
GI50 (DMS-273): > 100 µM (inactive)
GI50 (EKVX): > 100 µM (inactive)
GI50 (HCC 2998): > 100 µM (inactive)
GI50 (HCT-15): > 100 µM
GI50 (HL-60): > 100 µM (inactive)
GI50 (HOP-62): > 100 µM (inactive)
GI50 (HOP-92): > 100 µM (inactive)
GI50 (HT-29): > 100 µM (inactive)
GI50 (IGROV-1): > 100 µM (inactive)
GI50 (K562): > 100 µM (inactive)
GI50 (KM-20L2): > 100 µM (inactive)
GI50 (KM12): > 100 µM (inactive)
GI50 (LOX IMVI): > 100 µM (inactive)
GI50 (LXFL 529): > 100 µM (inactive)
GI50 (M14): > 100 µM (inactive)
GI50 (M19-MEL): > 100 µM (inactive)
GI50 (MOLT-4): > 100 µM (inactive)
GI50 (Malme-3M): > 100 µM (inactive)
GI50 (NCI-H23): > 100 µM (inactive)
GI50 (NCI-H460): > 100 µM (inactive)
GI50 (NCI-H522): > 100 µM (inactive)
GI50 (OVCAR-3): > 100 µM (inactive)
GI50 (OVCAR-4): > 100 µM (inactive)
GI50 (OVCAR-5): > 100 µM (inactive)
GI50 (OVCAR-8): > 100 µM (inactive)
GI50 (RPMI-8226): > 100 µM (inactive)
GI50 (RXF 393): > 100 µM (inactive)
GI50 (RXF 631): > 100 µM (inactive)
GI50 (SF-268): > 100 µM (inactive)
GI50 (SF-295): > 100 µM (inactive)
GI50 (SF-539): > 100 µM (inactive)
GI50 (SK-MEL-28): > 100 µM (inactive)
GI50 (SK-MEL-2): > 100 µM (inactive)
GI50 (SK-MEL-5): > 100 µM (inactive)
GI50 (SK-OV-3): > 100 µM (inactive)
GI50 (SN12C): > 100 µM (inactive)
GI50 (SNB-19): > 100 µM (inactive)
GI50 (SNB-75): > 100 µM (inactive)
GI50 (SW-620): > 100 µM (inactive)
GI50 (TK-10): > 100 µM (inactive)
GI50 (U-251): > 100 µM (inactive)
GI50 (UACC-257): > 100 µM (inactive)
GI50 (UACC-62): > 100 µM (inactive)
GI50 (UO-31): > 100 µM (inactive)
GI50 (XF498): > 100 µM (inactive)
